Test results as given in patent US7910723B2, “IG20 splice variants therapeutics for cancer” (The Board of Trustees of the University of Illinois, priority 2006, dated 2011).

Tested on: 14-3-3
Assay: Association of wtMADD with 14-3-3 in HEK293 cells (immunoprecipitation)
Format: cell-based
Conditions: LY 10 μM 1 h
Experimental: (A) Cellular distributions of wtMADD and MADD3A. HEK293 cells were transfected with wtMADD or MADD3A. 36 h after transfection, the cells were harvested and membrane andcytosolic fractions were prepared. Immunoblotting was performed using an anti-YFP antibody. Actin and caveolin-1 were used as loading controls. (B) […]. HEK293 cells were transfected with wtMADD or MADD3A. 36 h after transfection, the cells were harvested for immunoprecipitation using an anti-14-3-3 antibody followed by immunoblotting using an anti-YFP antibody for detecting exogenous MADD. The membrane was reprobed with an anti-14-3-3 antibody to show protein loading. (C) Inhibition of PI3K can lead to the association of wtMADD with 14-3-3. HEK293 cells were transfected with wtMADD. Cells were serum starved for 20 h and treated with LY (10 μM) for 1 h. Immunoprecipitation was performed using an anti-14-3-3 antibody, followed by immunoblotting using an anti-YFP or an anti-14-3-3 antibody. (D) Inhibition of Akt can result in the association of wtMADD with 14-3-3. HEK293 cells were co-transfected with wtMADD along with DN-Akt or pcDNA. […]
To explore the molecular mechanism by which nonphosphorylated MADD can trigger apoptosis, the cellular localization of phosphorylated and nonphosphorylated MADD was determined. […]
Immunoprecipitation. […] Immunoblots were prepared and analysed as described above.

Question: `O=c1cc(N2CCOCC2)oc2c(-c3ccccc3)cccc12` [LY] was tested. Which “Binding of WtMADD to 14-3-3” value did it give?
Answer: The value was “able to bind to 14-3-3 only in the presence of LY”.
